Consider one compound from ChEMBL document CHEMBL1777767, “Efficient radiosynthesis of 2-[(18)f]fluoroadenosine: a new route to 2-[(18)f]fluoropurine nucleosides” (ACS Med Chem Lett, 2010).

What all share (type): ADME, organism-based
What all share (settings): in vivo, 1 h

For one data set, the system named is Lung. Kind of data set: Biodistribution in Sprague-Dawley rat lung at 10.36 to 13.69 MBq, iv after 60 mins by gamma counting.
The next data set has as its system Kidney. Briefly: Biodistribution in Sprague-Dawley rat kidney at 10.36 to 13.69 MBq, iv after 60 mins by gamma counting.
A further data set has as its system Liver. Briefly: Biodistribution in Sprague-Dawley rat liver at 10.36 to 13.69 MBq, iv after 60 mins by gamma counting.
Another data set relates to Blood. Kind of data set: Biodistribution in Sprague-Dawley rat blood at 10.36 to 13.69 MBq, iv after 60 mins by gamma counting.
A further data set concerns Spleen. Briefly: Biodistribution in Sprague-Dawley rat spleen at 10.36 to 13.69 MBq, iv after 60 mins by gamma counting.
Data set [1] is described as follows: Biodistribution in Sprague-Dawley rat urine at 10.36 to 13.69 MBq, iv after 60 mins by gamma counting.
For the next data set, the system named is Brain. Briefly: Biodistribution in Sprague-Dawley rat brain at 10.36 to 13.69 MBq, iv after 60 mins by gamma counting.
The subject of a further data set is Intestine. Briefly: Biodistribution in Sprague-Dawley rat intestine at 10.36 to 13.69 MBq, iv after 60 mins by gamma counting.
The test system of another data set is Heart. Briefly: Biodistribution in Sprague-Dawley rat heart at 10.36 to 13.69 MBq, iv after 60 mins by gamma counting.
A further data set concerns Thymus. Kind of data set: Biodistribution in Sprague-Dawley rat thymus at 10.36 to 13.69 MBq, iv after 60 mins by gamma counting.

Turning to `Nc1nc([18F])nc2c1ncn2[C@@H]1O[C@H](CO)[C@@H](O)[C@H]1O`, the Drug uptake is listed as 9.15 % ID/g in the data set with Lung; 3.75 % ID/g in the data set on Kidney; 0.72 % ID/g in the data set on Liver; 0.47 % ID/g in the data set with Blood; 2.85 % ID/g with Spleen; 6.7 % ID/g in data set [1]. For the same compound, the Drug uptake is listed as 0.06 % ID/g in the data set on Brain, 1.45 % ID/g with Intestine, 3.22 % ID/g in the data set with Heart and 0.65 % ID/g in the data set on Thymus.
